Here are results for one compound from patent US8722745B2, “Sulfur-containing compound, method of preparation and pharmaceutical uses thereof” (National Sun Yat-Sen University, priority 2007, dated 2014).

SMILES strings stand for the structures.

Data set [1] concerns inducible nitric oxide synthase. Put plainly: Protein expression of inducible nitric oxide synthase in LPS-stimulated RAW 264.7 macrophages (Western blot). Type of data set: cell-based, mouse. As for the experimental part:
(§1) A mouse macrophage cell line, RAW 264.7, purchased from the American Type Culture Collection (ATCC , No TIB-71) was chosen in the in vitro model. The cells were cultured in DMEM (Dulcbecco/s Modified Eagle medium) containing 10% fetal bovine serum (FBS) and penicillin G (100 U/mL) and streptomycin (100 μg/mL) at 37° C. and 5% CO2. When reaching 80% confluence, the cells were subcultured with trypsin. The cells were subjected to an anti-inflammation assay after subcultured for 36 hours. 3×10^6 RAW264.7 cells were cultured in a 10-cm culture dish and administered with lipopolysaccharide (LPS, 0.01 μg/mL; Sigma L2654). After 16 hours, the cells were collected. […]
(§2) The collected RAW264.7 cells were dissolved with 200 μL of 4° C. lysis buffer (50 mM Tris [pH 7.5], 150 mM NaCl, 1% TritonX-100, 0.1 mM EDTA, 0.1 mM EGTA, 10 μg PMSF, 1 μg/mL aprotinin, 20 mM NaF, and 0.2 mM Na3VO4). […] The supernatant was assayed with Bio-Rad DC protein assay kit (Bio-Rad Laboratories, Hercules, Calif., USA) and the absorbance was read with an ELISA reader (Thermo Electron Corporation, USA) for estimating the protein contents. […] After washed with TTBS for three times, an enhanced chemiluminescence detection kit was used for reading with the PVDF membrane and exposed with an X-ray film (Kodak X-OMAT LS, Kodak, Rochester, N.Y., USA) for detecting the protein expression. […]

The test system of the next data set is cyclooxygenase-2. Put plainly: Protein expression of cyclooxygenase-2 in LPS-stimulated RAW 264.7 macrophages (Western blot). Type of data set: cell-based, mouse. Here is the method:
as §1, §2

Another data set has as its system β-actin. As to the kind of experiment: Protein expression of β-actin (internal control) in LPS-stimulated RAW 264.7 macrophages. Type of data set: cell-based, mouse. The conditions noted are these: 50 μM compound. Here is the method:
as §1, §2

Data set [2] deals with thermal hyperalgesia after sciatic nerve chronic constriction injury. Put plainly: Neuropathic pain model, sciatic nerve chronic constriction injury, thermal hyperalgesia. Type of data set: in vivo, rat. Here is the method:
The operation was performed according to the description of Wen et al, Brain Res 963:1-7, 2003. The dura mater of male Wistar rats was opened near the foramen magnum and planted with an 8.5-cm PE tube (outer diameter: 0.014 inches, inner diameter: 0.008 inches). The drugs worked near the lumbar, and the end of injection was fixed on the head. Animals those had deficient in motor or blood in the intrathecal catheter were abandoned.
The model was established similar to the sciatic nerve chronic constriction injury (CCI) established by Bennett and Xie (Pain 33:87-107, 1988). 4-O cat cut line was used to tie four nodes on the sciatic nerve. After one week, the behavior of thermal hyperalgesia was stimulated. The behavior of thermal hyperalgesia was assayed similar to the method established by Hargreaves et al (Pain 32:77-88, 1988) and recorded with an analgesiometer (IITC Inc., Woodland Hills, Calif., USA) for assessing the effect of the compound represented by formula 3 on neuropathic pain relief.
MPE(%)=(latency after drug administered−basal latency)/(30 seconds−basal latency)×100%
If a higher MPE was obtained, the effect of pain relief was better, and the maximum value of MPE was 100.

In data set [3] the test system is neointimal proliferation of the carotid artery. Put plainly: Atherosclerosis model in rat, balloon-induced angioplasty of carotid artery. In kind it is in vivo. As for the experimental part:
The operation was performed according to the references of Berger et al (Atherosclerosis 175:229-234, 2004) and Chen et al (Naunyn Schmiedebergs Arch Pharmacol 368:127-133, 2003). The animals were anesthetized with 2.5% isoflurane (mixed air and oxygen of 1:1) with a 2F probe balloon catheter. The catheter was pre-filled with saline solution and positioned from the external carotid artery of the right neck into the right common carotid artery. When the catheter entered about 1.5 cm of the right common carotid artery, the balloon was inflated and rubbed forward and backward three times. Then, the catheter was removed and the external carotid artery was ligated and the incision was sutured. […] The samples were observed under an optical microscopy and photoed. The thickness of neointimal proliferation was determined. The right side of each rat was taken as the experiment group and the left side was as the control group.
In the experiment group, the compound represented by formula 3 was administered.

The subject of a further data set is multiple sclerosis (EAE). Put plainly: Multiple sclerosis (EAE) animal model, neural function score. In kind it is in vivo. Here is the method:
Female Lewis rats weighted between 280 to 300 g were used in the multiple sclerosis (MS, also called Encephalomyelitis; EAE) model (Boulerne et al, J Neurosci. 2002; 22:123-32, 2004). The animals were anesthetized with 2.5% isoflurane, and 50 μL of Complete Freund's Adjuvant (Sigma) containing 1 mg inactivated Mycobacterium tuberculosis H37Ra and 50 μg guinea pig myelin basic protein (MBP) was subcutaneous injected from the posterior paw for 100% immunizing In the control group, the rats were injected with Freund's complete adjuvant containing inactivated Mycobacterium tuberculosis H37Ra and without guinea pig myelin basic protein. The ill was observed on day 11 to 12 after immunization, and reached the peak on day 14 to 15.
The neural function was assessed on day 15. The scores represents: 0: no clinical symptom; 1: function loss in the tail; 2: partial paralysis in the posterior limbs; 3: complete paralysis in the posterior limbs; 4: paralysis in the four limbs; 5: complete paralysis in the whole body; 6: death (Liu et al. J Neuroimmunol. 2003; 139:27-35, 1998).
The rats were divided into four groups, and each group containing four animals: • Control group: Rats were subcutaneous injected from the posterior paw with Freund's complete adjuvant containing inactivated Mycobacterium tuberculosis H37Ra and without guinea pig myelin basic protein. 20 μL of normal saline was administered through the intrathecal catheter twice a day for five days from day 7. • Multiple sclerosis group: Rats were subcutaneous injected from the posterior paw with Freund's complete adjuvant containing inactivated Mycobacterium tuberculosis H37Ra and guinea pig myelin basic protein. 20 μL of normal saline was administered through the intrathecal catheter twice a day for five days from day 7. • Multiple sclerosis with treatment group: Rats were subcutaneous injected from the posterior paw with Freund's complete adjuvant containing inactivated Mycobacterium tuberculosis H37Ra and guinea pig myelin basic protein. […]

Turning to `CC(=O)CCS(=O)(=O)CCO` [formula 3], the “inhibition of inducible nitric oxide synthase of macrophages” value in data set [1] (10 to 30 μM compound, LPS 0.01 μg/mL) is “significantly inhibits”. For the same compound, the IC50 in data set [1] (RAW 264.7 macrophages stimulated by LPS 0.01 μg/mL, 16 hours, protein expression, read-out: 50% inhibition concentration (IC50), inducible nitric oxide synthase) came out at 3.64 ± 0.28 µM; in the data set with cyclooxygenase-2 (RAW 264.7 macrophages stimulated by LPS 0.01 μg/mL, 16 hours, protein expression), 32.1 ± 8.1 µM. In addition, in the data set on cyclooxygenase-2 (5 to 30 μM compound, LPS 0.01 μg/mL), the “inhibition of cyclooxygenase-2 of macrophages” value is on record as “significantly inhibits”. Also, in the data set with β-actin, the “effect on protein expression of β-actin” value was “inhibits the protein expression of β-actin”. In addition, the “50% effective dose (ED50) calculated from MPE” value in data set [2] (intrathecal injection, CCI rats, paw withdrawal latency) was 0.75 ± 0.05 µg. Further, the thermal hyperalgesia inhibition entry in data set [2] (intrathecal injections of 0.1, 0.5, 1, or 5 μg) is reported as “significant effect on thermal hyperalgesia inhibition”. For the same compound, in data set [3] (administered once a day), the “neointimal proliferation (preliminary result)” value was “significantly improved”. Besides, in data set [3] (hypodermic injection 3 mg/kg a day from day 10 to 24 after operation), the “atherosclerosis, numeralized intima/media” value is “improves atherosclerosis significantly”. The “neointimal proliferation stimulated by balloon-induced angioplasty” value in data set [3] (hypodermic injection 3 mg/kg a day from day 10 to 24 after operation, slices on day 24) was “improves the neointimal proliferation”. Also, in the data set with multiple sclerosis (EAE) (10 μg/20 μL intrathecal twice a day for five days from day 7, assessed on day 15, female Lewis rats), the “neural function score (0-6), multiple sclerosis with treatment group” value came out at 0.5±0.3. Besides, in the data set on multiple sclerosis (EAE) (administered through the intrathecal catheter), the “progress of multiple sclerosis” value is “significantly represses the progress of multiple sclerosis”. In the data set on multiple sclerosis (EAE) (normal rats, 10 μg/20 μL intrathecal twice a day for five days from day 7), the “neural function score (0-6), normal rats with treatment group” value is listed as 0.
